Test results reported in US6600076B1, “Cleavable, water-soluble surfactants” (The Regents of the University of California, priority 1999, dated 2003).
Where two headings read alike, the source gives them in different places.

Legend:
[1] = Equilibrium surface tension, Wilhelmy plate, borate buffer; type: physicochemical; conditions: 100 mM borate buffer, pH 9.2
Description: Disulfide-containing surfactants with anionic head groups were synthesized. […] Equilibrium surface tensions were measured using a Kruss K10T tensiometer with a platinum Wilhelmy plate. Surfactant solutions were prepared in a 100 mM borate buffer, pH 9.2.

[2] = Surface tension of aqueous solutions, maximum bubble pressure tensiometer, incl. reduction with DTT; type: physicochemical; conditions: for effect on surface tension of water: 10 mM DTT and 1 mM oxidized DTT added to water
Description: (Menger, F. M. et al., J. Am. Chem. Soc. 115:10083-10090 (1993)). […] The surface tensions of the reacting system reported herein correspond, therefore, to a local steady state at the surface of the solution. In the absence of reaction, these surface tensions are equilibrium tensions.

[3] = Stability of solid and of aqueous solutions (surface tension over time); type: physicochemical; conditions: 1 mM solution in 50 mM phosphate buffer (pH 6.9)
[4] = cited from earlier work
[5] = Surface tension after oxidation with NaOCl or bleach (pendant drop); type: physicochemical; conditions: for surface tension: 4 mM
Description: To test the idea that oxidation of 1 by NaOCl would transform 1 into less surface-active products, changes in surface tensions that accompanied additions of aliquots of NaOCl to solutions of 1 were measured. The amount of OCl^− consumed by reaction with 1 was also determined by iodometry. The initial surface tension of the 2 mM solution (using the pendant drop technique) was measured to be 48 mN/m. […] The addition of subsequent aliquots of NaOCl, however, caused the surface tension to increase to ˜71 mN/m. […] In this case, only ˜8% of the OCl^− added remained unreacted.
The oxidation of 1 using NaOCl (6:1 ratio of NaOCl to 1) was performed in 50 mM phosphate buffers at three different pHs (pH 3, 6.9, and 11). Following the addition of NaOCl to aqueous solutions of 1 at pH 3 and pH 6.9, the surface tensions of the solutions were measured to increase from ˜48 mN/m to ˜71 mN/m within ˜5 min (FIG. 17). The surface tension was also determined to increase from ˜48 mN/m to ˜71 mN/m upon addition of NaOCl to an aqueous solution of 1 at pH 11. In this case, however, it took ˜15 min for the surface tension to increase to 71 mN/m. […] Therefore disulfide-based surfactants can form the basis of chemodegradable surfactant system that can be used over a wide pH range.
Household bleach was added (6:1 ratio of NaOCl to 1) to a 2 mM solution of 1 in pH 6.9 buffer. Upon addition of bleach to 1, the surface tension of the solution increased from 48 mN/m to ˜71 mN/m in ˜3 min (FIG. 18A), a result similar to our earlier observations based on the addition of NaOCl to 1. […] A control experiment was performed in which the household bleach was added to the phosphate buffer and found not to change the surface tension.

Cyclic voltammetry = type: physicochemical; conditions: 5 mM of 1 or 10 mM of 2, 50 mM phosphate buffer pH 6.9, SCE reference
Description: Solutions were prepared in 50 mM phosphate buffer, pH 6.9. Application of potential was controlled using a potentiostat (Pine Instruments, Grove City, Pa.), and the experimental set-up involved using a carbon felt working electrode with cobalt phthalocyanine (catalyst) evaporated onto the surface of the electrode. A platinum counter electrode and SCE reference electrode were also used.

[6] = Surface tension, pendant drop; conditions: 50 mM phosphate buffer pH 6.9, concentrations around or above 10 mM
[7] = Interfacial tension between dodecane and aqueous solution on oxidation by NaOCl; type: physicochemical
[8] = DTT (10 equivalents) added
Description: This mixture was sonicated on a setting of 50 for a period of 10 s and then vortexed for 1 min to ensure that the emulsion was thoroughly mixed.

[9] = 10 mM of 1, 5 wt. % dodecane, NaOCl 6:1
Description: The mixture was sonicated on a setting of 2 for a period of 20 s and then vortexed for 1 min to ensure that the emulsion was thoroughly mixed.
The disruption of the emulsion was determined by the observation of phase separation in the reaction vial.
A single emulsion was first divided into two vials. […] The second vial was used as a control.

**Q.** Which “differences in equilibrium surface tensions between 3 and 4 at a specified concentration” value [1] does the source give for “1,16-dicarboxylic dioctyl disulfide [compound 3]” here?
**A.** The value was “up to 16 mN/m”.

**Q.** With `O[C@H](CS)[C@H](O)CS` (racemic) [DTT, dithiothreitol, reference compound] as the molecule, how does the “effect on surface tension of water” value [2] read?
**A.** The value was “did not result in a change in surface tension”.

**Q.** With `CCCCCCCCCCCCCCCC[N+](C)(C)C.[Br-]` [CTAB, cetyltrimethylammonium bromide] as the molecule, how does the “increase in surface tension over 24 h” value [3] read?
**A.** Its value is about 0.5 mN/m.

**Q.** What about the “increase in surface tension over 5 days” value [3] of the same molecule?
**A.** The value was 1 mN/m.

**Q.** And the surface tension [3]?
**A.** The surface tension was about 41 mN/m.

**Q.** What about the “limiting surface tension (γlim)” value ([4]; in 0.1 M lithium sulfate) of the same molecule?
**A.** The value was 39 mN/m.

**Q.** Which “surface tension of the initial solution” value ([5]; 4 mM solution, before NaOCl) does the source give for `CCCCCCCCCCCC[N+](C)(C)C.[Br-]` [DTAB, dodecyltrimethylammonium bromide, reference compound] here?
**A.** Its value is about 52 mN/m.

**Q.** What about the surface tension ([5]; first equivalent of NaOCl) of the same molecule?
**A.** Its surface tension is about 43 mN/m.

**Q.** What about the surface tension ([5]; second equivalent of NaOCl) of the same molecule?
**A.** Its surface tension is about 50 mN/m.

**Q.** What about the surface tension ([5]; up to six equivalents of NaOCl) of the same molecule?
**A.** The surface tension was 45 mN/m.

**Q.** With `CCCCCCCCCCCCOS(=O)(=O)[O-].[Na+]` [SDS, sodium dodecyl sulfate] as the molecule, how does the “surface pressure at an air-aqueous interface” value ([4]; 1 mM solution) read?
**A.** Its value is 7.5 mN/m.

**Q.** What about the “surface pressure at the heptadecane-aqueous interface” value ([4]; 1 mM solution) of the same molecule?
**A.** The value was 15.2 mN/m.

**Q.** Which oxidation peak (Cyclic voltammetry) does the source give for `C[N+](C)(C)CCCCCCCCS.[Br-]` [compound 2, (8-mercaptooctyl)trimethylammonium bromide] here?
**A.** The oxidation peak was 0.55 V.

**Q.** What about the “average area occupied at the surface” value ([2]; 2 mM solution of 2, Gibbs adsorption equation) of the same molecule?
**A.** Its value is over 500 A^2/molecule.

**Q.** What about the “threshold concentration of surfactant causing a measurable reduction in surface tension” value ([2]; 50 mM phosphate buffer, pH 6.9, 25° C.) of the same molecule?
**A.** The value was about 1 mM.

**Q.** For `O=C(O)CCCCCCCS` [compound 4, 8-mercaptooctanoic acid], which limiting surface tension [6] is on record?
**A.** The limiting surface tension was about 47 mN/m.

**Q.** What about the “surface activity of the oxidation product” value ([5]; up to a concentration of 10 mM, 6:1 NaOCl to 1) of the same molecule?
**A.** Its value is “surface-inactive”.

**Q.** And the “surface pressure π at the interface of dodecane and water” value ([7]; 10 mM of 1 oxidized)?
**A.** Its value is 22.5 mN/m.

**Q.** What about the “surface pressure π at the surface of water” value ([7]; concentration of 10 mN (printed)) of the same molecule?
**A.** The value was 2 mN/m.

**Q.** With `C[N+](C)(C)CCCCCCCCCCCC[N+](C)(C)C.[Br-].[Br-]` [dodecane-1,12-bis(trimethylammoniumdibromide)] as the molecule, how does the limiting surface tension ([4]; dissolved into water) read?
**A.** The limiting surface tension was 38 mN/m.

**Q.** For `OC1CSSCC1O` (centres unmarked) [oxidized DTT, reference compound], which “effect on surface tension of water” value [2] is on record?
**A.** The value was “did not result in a change in surface tension”.

**Q.** What does the source list for “bis(8-trimethylammonium bromide)dioctyl disulfide [compound 1]”?
**A.** duration of the rapid oxidation [5]: 2 to 3 min; time for the surface tension to increase ([5]; NaOCl 6:1, pH 3 and pH 6.9): ≤ 5 min; time for the surface tension to increase ([5]; NaOCl 6:1, pH 11): ~15 min; time for the surface tension to increase ([5]; household bleach, 6:1, pH 6.9): ~3 min; completion of phase separation of the emulsion [8]: ~120 min; time for the interfacial tension to increase ([7]; 10 mM, 6 equivalents of NaOCl): ≤ 3 min; completion of phase separation of the emulsion [9]: 45 min; evidence of phase separation of the emulsion [9]: ≤ 10 min
